Results reported in patent publication US20040127518A1, “Modulation of anxiety through blockade of anandamide hydrolysis” (priority 2002, published 2004).
Structures can show the parent of a compound that is named as a salt. Where two headings read alike, the source gives them in different places.

Experiments:
FAAH = target: T1, FAAH (Rattus norvegicus, UniProt P97612); experiment: biochemical; type: biochemical; parameters: from tissue; host or cells: rat brain (membrane fraction of homogenate; Wistar rats)
T1 sequence (P97612 1-579): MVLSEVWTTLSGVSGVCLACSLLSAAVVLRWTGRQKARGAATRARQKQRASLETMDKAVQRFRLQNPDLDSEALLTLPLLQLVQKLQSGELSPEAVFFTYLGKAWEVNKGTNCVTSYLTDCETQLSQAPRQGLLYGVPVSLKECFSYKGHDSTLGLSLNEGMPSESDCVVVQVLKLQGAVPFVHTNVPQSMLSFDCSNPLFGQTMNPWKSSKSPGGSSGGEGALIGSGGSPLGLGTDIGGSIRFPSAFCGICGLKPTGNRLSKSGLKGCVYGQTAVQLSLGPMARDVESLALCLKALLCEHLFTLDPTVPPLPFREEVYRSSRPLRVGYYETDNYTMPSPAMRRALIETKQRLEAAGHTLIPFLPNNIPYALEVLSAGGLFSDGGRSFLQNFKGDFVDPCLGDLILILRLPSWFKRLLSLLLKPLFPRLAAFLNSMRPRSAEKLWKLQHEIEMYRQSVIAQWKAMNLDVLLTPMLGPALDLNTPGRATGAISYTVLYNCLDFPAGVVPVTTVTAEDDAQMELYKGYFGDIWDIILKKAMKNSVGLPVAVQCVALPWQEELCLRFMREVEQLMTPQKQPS

[1] = target: electric eel acetylcholinesterase (Electrophorus electricus, UniProt O42275); experiment: biochemical
Sequence of electric eel acetylcholinesterase (O42275 whole entry): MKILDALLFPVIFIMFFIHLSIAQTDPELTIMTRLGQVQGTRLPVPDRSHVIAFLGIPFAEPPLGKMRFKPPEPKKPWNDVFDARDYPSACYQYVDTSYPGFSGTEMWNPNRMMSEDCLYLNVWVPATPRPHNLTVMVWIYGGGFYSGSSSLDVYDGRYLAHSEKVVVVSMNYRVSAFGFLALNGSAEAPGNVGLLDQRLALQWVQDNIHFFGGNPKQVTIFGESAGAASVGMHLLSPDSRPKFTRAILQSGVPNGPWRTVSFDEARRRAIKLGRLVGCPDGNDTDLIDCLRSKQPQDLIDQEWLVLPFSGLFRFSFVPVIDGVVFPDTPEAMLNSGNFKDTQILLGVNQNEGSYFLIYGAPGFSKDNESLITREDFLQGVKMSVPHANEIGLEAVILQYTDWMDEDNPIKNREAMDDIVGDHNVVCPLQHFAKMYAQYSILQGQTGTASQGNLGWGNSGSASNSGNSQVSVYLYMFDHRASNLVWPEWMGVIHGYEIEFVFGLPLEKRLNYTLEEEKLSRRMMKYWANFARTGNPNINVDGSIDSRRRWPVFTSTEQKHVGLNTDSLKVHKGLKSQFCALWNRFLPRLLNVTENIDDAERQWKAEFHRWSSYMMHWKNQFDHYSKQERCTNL
Source text: We prepared cell fractions from rat brain homogenates, and assayed membrane FAAH activity and cytosol MGL activity using anandamide [ethanolamine-3H] (American Radiolabeled Chemicals, ARC (St. Louis Mo.), 60 Ci/mmol) and 2-mono-oleoyl-glycerol-[glycerol-1,2,3^−3H] (ARC, St. Louis Mo., 20 Ci/mmol), respectively, as substrates (Dinh, T. Proc. Natl. Acad. Sci. U.S.A. (2002)). We conducted [^3H]anandamide transport assays in human astrocytoma cells (Piomelli, D. et al., Proc. Natl. Acad. Sci. U.S.A., 96, 5802-5807 (1999)); CB1 and CB2 binding assays in rat cerebellar membranes and CB2-overexpressing Chinese hamster ovary cells (Receptor Biology-Perkin Elmer, Wellesley, Mass.), respectively, using [^3H]WIN-55212-2 (NEN-Dupont, Boston, Mass., 40-60 Ci/mmol) as a ligand (Devane, W. A. et al. Science, 258, 1946-1949 (1992)); cholinesterase assays with a commercial kit (Sigma, St. Louis, Mo.), using purified enzymes (electric eel acetylcholinesterase type V-S and horse serum cholinesterase; both from Sigma, St. Louis, Mo.) and following manufacturer's instructions.

[2] = Table 3, read-out: Amidohydrolase IC50
[3] = Table 4, FAAH IC50, read-out: Inhibition of Amidohydrolase IC50
[4] = rat brain membranes, read-out: IC50
[5] = Inhibition of Amidohydrolase IC50(μM)
[6] = Table 5, rat brain membranes, [3H]anandamide, read-out: IC50 (nM) ± S.E.M.
[7] = Table 6, meta-substituted derivatives, read-out: pIC50 obsd (converted)
[8] = Table 1, rat brain membranes, mean of at least three experiments, read-out: IC50

O=C(NC1CCCCC1)Oc1ccc2ccccc2c1 [PL#11, 2-naphthyl N-cyclohexylcarbamate]
IC50 (FAAH; [2]): 0.33 µM | IC50 (FAAH; [3]): 0.33 µM | IC50 (FAAH; [4]): 0.324 ± 0.031 µM | IC50 [1]: > 30000 nM

Nc1ccc(-c2ccccc2)cc1OC(=O)NC1CCCCC1 [PL#61]
IC50 (FAAH; [3]): > 30 µM

Nc1cccc(-c2cccc(OC(=O)NC3CCCCC3)c2)c1 [PL#45]
IC50 (FAAH; [5]): 0.06 µM

O=C(NC(=O)c1ccc(-c2cccc(OC(=O)NC3CCCCC3)c2)cc1)NC1CCCCC1 [Compound 3f]
IC50 (FAAH; IC50 (nM) ± S.E.M.): 3.02 µM

O=C(NC1CCCCC1)Oc1cccc(-c2cccc(C(F)(F)F)c2)c1 [PL#44]
IC50 (FAAH; [5]): 0.13 µM

O=C(NC1CCCCC1)Oc1cccc(-c2cccc(OC(=O)NC3CCCCC3)c2)c1 [Compound 3l]
IC50 (FAAH; [6]): 0.361 ± 0.137 µM | IC50 (FAAH; [7]): 0.363 µM

CCCc1cccc(-c2cccc(OC(=O)NC3CCCCC3)c2)c1 [PL#62]
IC50 (FAAH; [5]): 0.08 µM

NC(=O)c1ccc(OC(=O)NC2CCCCC2)cc1-c1ccccc1 [PL#49]
IC50 (FAAH; [3]): 0.2 µM

Nc1ccc(OC(=O)NC2CCCCC2)cc1-c1ccccc1 [PL#59]
IC50 (FAAH; [3]): 0.05 µM

NS(=O)(=O)c1cccc(-c2cccc(OC(=O)NC3CCCCC3)c2)c1 [Compound 3r]
IC50 (FAAH; [6]): 0.0265 ± 0.0045 µM | IC50 (FAAH; [7]): 0.0263 µM

O=C(NC1CCCCC1)Oc1cccc(-c2cccc(CO)c2)c1 [Compound 3v]
IC50 (FAAH; [6]): 0.00867 ± 0.0009 µM | IC50 (FAAH; [7]): 0.00871 µM

CNC(=O)Oc1ccc2c(c1)[C@@]1(C)CCN(C)[C@H]1N2C [PL#16, (−)-Physostigmine sulfate, reference compound]
IC50 (FAAH; [2]): > 30 µM | IC50 (FAAH; [3]): > 30 µM

N#Cc1cccc(-c2cccc(OC(=O)NC3CCCCC3)c2)c1 [Compound 3t]
IC50 (FAAH; [6]): 0.0339 ± 0.007 µM | IC50 (FAAH; [7]): 0.0339 µM

O=C(NC1CCCCC1)Oc1ccc(-c2ccccc2)cc1 [PL#5, 4-biphenyl N-cyclohexylcarbamate]
IC50 (FAAH; read-out: Amidohydrolase IC50): 2.3 µM | IC50 (FAAH; read-out: Inhibition of Amidohydrolase IC50): 2.3 µM | IC50 [1]: > 30000 nM

O=C(NC1CCCCC1)Oc1cccc(-c2cccc(Cc3ccccc3)c2)c1 [Compound 3o]
IC50 (FAAH; [6]): 1.86 µM | IC50 (FAAH; [7]): 1.86 µM

O=C(NC1CCCCC1)Oc1cccc(-c2cccc(F)c2)c1 [PL#47]
IC50 (FAAH; [3]): 0.092 µM

O=C(NC1CCCCC1)Oc1cccc(-c2cccc(-c3ccccc3)c2)c1 [Compound 3n]
IC50 (FAAH; [6]): 0.565 ± 0.042 µM | IC50 (FAAH; [7]): 0.562 µM

O=C(NC1CCCCC1)Oc1cccc(-c2cccc(Oc3ccccc3)c2)c1 [#35]
IC50 (FAAH; [3]): 2.6 µM

CCCCNC(=O)Nc1cccc2ccccc12 [PL#23]
IC50 (FAAH; [3]): > 30 µM

O=C(Nc1ccc(Cl)cc1)NC1CCCCC1 [PL#21]
IC50 (FAAH; [3]): > 30 µM

Cc1ccc(-c2cccc(OC(=O)NC3CCCCC3)c2)cc1 [PL#37]
IC50 (FAAH; [3]): 0.23 µM

CCc1ccc2cc(OC(=O)NC3CCCCC3)ccc2c1 [PL#28]
IC50 (FAAH; [5]): 3 µM

O=C(Nc1ccc2ccccc2c1)N1CCCCC1 [PL#22]
IC50 (FAAH; [3]): > 30 µM

O=C(NC1CCCCC1)Oc1cccc(-c2ccc(C(F)(F)F)cc2)c1 [Compound 3a]
IC50 (FAAH; IC50 (nM) ± S.E.M.): 1.59 µM

CC(C)(C)NC(=O)Oc1ccc(-c2ccccc2)cc1Cl [PL#10, 3-chloro-4-biphenylyl N-tert-butylcarbamate]
IC50 (FAAH; [2]): > 30 µM | IC50 (FAAH; [3]): > 30 µM | IC50 [1]: > 30000 nM

Nc1ccc(-c2cccc(OC(=O)NC3CCCCC3)c2)cc1 [Compound 3d]
IC50 (FAAH; IC50 (nM) ± S.E.M.): 0.36 ± 0.059 µM

Cc1ccc(OC(=O)NC2CCCCC2)cc1 [PL#6, p-toly-N-cyclohexy carbamate]
IC50 (FAAH; [2]): 5.4 µM | IC50 (FAAH; [3]): 5.4 µM | IC50 [1]: > 30000 nM

O=C(NC1CCCCC1)Oc1ccc(/C=C\c2ccccc2)cc1 [PL#25]
IC50 (FAAH; [5]): 0.24 µM

CCCCCc1cccc(OC(=O)NC2CCCCC2)c1 [#33]
IC50 (FAAH; [3]): 0.22 µM

Cc1ccc(-c2cccc(OC(=O)NC3CCCCC3)c2)cc1 [Compound 3b]
IC50 (FAAH; [6]): 0.155 ± 0.021 µM

CNC(=O)Oc1ccc2ccccc2c1 [PL#4, 2-naphtyl-N-methylcarbamate]
IC50 (FAAH; [8]): 18.6 µM | IC50 (FAAH; [2]): 18.7 µM | IC50 (FAAH; [3]): 18.6 µM | IC50 (FAAH; rat brain membranes, mean±SEM, n=3, read-out: IC50): 18.6 ± 0.7 µM | IC50 [1]: > 30000 nM

O=C(NC1CCCCC1)Oc1ccc2ccn(-c3ccccc3)c2c1 [#36]
IC50 (FAAH; [3]): 1.4 µM

O=C(NC1CCCCC1)Sc1ccc2ccccc2c1 [PL#52]
IC50 (FAAH; [5]): 15 µM

O=C(NC1CCCCC1)Oc1cccc(-c2ccccc2)c1 [URB524, cyclohexylcarbamic acid biphenyl-3-yl ester]
IC50 (FAAH; [8]): 0.063 µM | IC50 (FAAH; [3]): 0.06 µM | IC50 (FAAH; [6]): 0.063 ± 0.009 µM | pIC50 obsd (FAAH; Table 6, meta-substituted derivatives): 7.20 | IC50 (FAAH; [4]): 0.063 ± 0.009 µM
